Test systems include RXF 393 renal; HOP-62 NSCLC; UO-31 renal; SF-268 CNS; HCC-2998 colon; SK-MEL-28 melanoma; SW-620 colon; NCI-H226 lung; 786-0 renal; COLO 205 colon; A549 NSCLC; PC-3 prostate; DU-145 prostate; MDA-MB-435.
Assay in all cases: NCI-60 cell line screen, 48 h

The results in this text go back to PubChem BioAssay (NCI).

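Protocol summary: plate cells (96-well), add compound at 5 concentrations, incubate 48 h, interpolate endpoints linearly. TGI denotes the concentration required for complete inhibition of growth.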

Consider `CCOC(=O)C1(C#N)C(c2ccccc2)CC(O)(c2ccc([N+](=O)[O-])cc2)C(C(=O)c2ccc([N+](=O)[O-])cc2)C1c1ccccc1` (stereo not given), for which the TGI was 42.6 µM with RXF 393 renal; > 100 µM in the assay on HOP-62 NSCLC; > 100 µM in the assay with UO-31 renal; > 100 µM in the assay on SF-268 CNS; > 100 µM with HCC-2998 colon; > 100 µM in the assay with SK-MEL-28 melanoma. The TGI in the assay with SW-620 colon, in the assay on NCI-H226 lung, in the assay with 786-0 renal, in the assay on COLO 205 colon and with A549 NSCLC was > 100 µM each time.
As to `Cc1c(C#N)c(N)[nH]c(=S)c1C#N`, the TGI in the assay on RXF 393 renal, in the assay on HOP-62 NSCLC, with UO-31 renal, with SF-268 CNS, with HCC-2998 colon and in the assay on SK-MEL-28 melanoma was > 100 µM throughout. The TGI in the assay on PC-3 prostate, in the assay on SW-620 colon, with NCI-H226 lung, in the assay on 786-0 renal, with DU-145 prostate and in the assay with A549 NSCLC was > 100 µM each time.
As to `CC(C)N(C(=O)C1(C)CC1)C(C)C`, the TGI in the assay with RXF 393 renal, in the assay with HOP-62 NSCLC, in the assay on UO-31 renal, in the assay on SF-268 CNS, in the assay with HCC-2998 colon and with SK-MEL-28 melanoma was > 100 µM throughout. In addition, the TGI in the assay with SW-620 colon, with NCI-H226 lung, in the assay on 786-0 renal, in the assay on COLO 205 colon and in the assay with A549 NSCLC was > 100 µM throughout.
Turning to `CCOc1cc2ccc3c4cc(OC)c(OC)cc4cnc3c2cc1OCC`, the TGI in the assay with HOP-62 NSCLC, in the assay on UO-31 renal, in the assay with SF-268 CNS, in the assay with HCC-2998 colon, in the assay on SK-MEL-28 melanoma and in the assay on SW-620 colon was > 100 µM in each case. The TGI in the assay on 786-0 renal, in the assay on COLO 205 colon and in the assay with A549 NSCLC was > 100 µM each time.
Consider `CC1=C(C)CC(C#N)(C#N)C(C#N)(C#N)C1`, for which the TGI in the assay with RXF 393 renal was > 6.09 µM; in the assay on HOP-62 NSCLC it was > 10 µM; with UO-31 renal, > 10 µM; with SF-268 CNS, > 10 µM; in the assay on HCC-2998 colon, > 10 µM; in the assay on SK-MEL-28 melanoma it was > 10 µM. The TGI with PC-3 prostate is > 10 µM; in the assay with SW-620 colon it was > 5.42 µM; in the assay with NCI-H226 lung, > 10 µM; with 786-0 renal, > 8.08 µM; in the assay on COLO 205 colon, > 6.8 µM; in the assay with DU-145 prostate it was > 10 µM. The TGI in the assay with A549 NSCLC is > 10 µM.
As to `CC(C)C1C(=O)NC(CO)Cc2c[nH]c3c(C(c4c[nH]c5ccccc45)C(O)CO)ccc(c23)N1C` (stereo not given), the TGI was > 100 µM in the assay on RXF 393 renal; > 100 µM in the assay on UO-31 renal; > 100 µM in the assay on SF-268 CNS; 18.5 µM with HCC-2998 colon; > 100 µM with SK-MEL-28 melanoma; > 100 µM in the assay with SW-620 colon. Further, the values for the TGI with 786-0 renal, in the assay on COLO 205 colon and in the assay with A549 NSCLC were > 100 µM, 38.6 µM and > 100 µM, respectively.
Consider `Cc1cc2nc3c(C#N)c(-c4ccccc4)/c(=C\Nc4ccc(Cl)cc4)c(=O)n3c2cc1C`, for which the TGI in the assay with RXF 393 renal, with HOP-62 NSCLC, with UO-31 renal, in the assay with SF-268 CNS, in the assay on HCC-2998 colon and in the assay with SK-MEL-28 melanoma was > 100 µM each time. The TGI with PC-3 prostate, in the assay on SW-620 colon, in the assay on MDA-MB-435, with NCI-H226 lung, in the assay with 786-0 renal and with COLO 205 colon was > 100 µM in each case. In the assay on A549 NSCLC, the TGI was > 100 µM.
With `COc1c(C)c2c(c3c1c(=O)c1ccccc1n3C)C=CC(C)(C)O2`, the TGI is > 100 µM in the assay on RXF 393 renal; 85.8 µM in the assay on HOP-62 NSCLC; 66 µM in the assay on UO-31 renal; 91.4 µM with SF-268 CNS; 95.6 µM with HCC-2998 colon; 55.1 µM in the assay on SK-MEL-28 melanoma. In addition, the TGI in the assay on SW-620 colon is > 100 µM; with NCI-H226 lung, > 100 µM; in the assay with 786-0 renal, 69.8 µM; with COLO 205 colon, 99.1 µM; in the assay with A549 NSCLC, 26.7 µM.
In the case of `O=C1CCCC2=C1CC1=C(CCCC1=O)N2c1ccccc1C(=O)O`, the TGI with RXF 393 renal, in the assay with UO-31 renal, with SF-268 CNS, in the assay on HCC-2998 colon, with SK-MEL-28 melanoma and in the assay with PC-3 prostate was > 100 µM in each case. In addition, the TGI with SW-620 colon, in the assay on NCI-H226 lung, in the assay on 786-0 renal and with A549 NSCLC was > 100 µM throughout.
On to `O=c1c(-c2ccccc2)c2oc(c1-c1ccccc1)CS(=O)(=O)CCC2`, for which the TGI in the assay on RXF 393 renal is 29.5 µM; with HOP-62 NSCLC, > 100 µM; with SF-268 CNS it was 83.3 µM; in the assay with SK-MEL-28 melanoma it was 38.3 µM; in the assay with SW-620 colon it was > 100 µM; with NCI-H226 lung it was 80.9 µM. For the same compound, the TGI is 44.1 µM in the assay on 786-0 renal, 42.1 µM in the assay on COLO 205 colon and > 100 µM in the assay with A549 NSCLC.
With `CC1CN(c2ccc(Cl)cc2)CC(C)(C)OC(=O)O1` (stereo not given), the TGI in the assay on RXF 393 renal, with HOP-62 NSCLC, in the assay with UO-31 renal, with SF-268 CNS, in the assay with HCC-2998 colon and in the assay with SK-MEL-28 melanoma was > 100 µM each time. Further, the TGI in the assay on SW-620 colon, with NCI-H226 lung, in the assay on 786-0 renal, in the assay on COLO 205 colon and in the assay with A549 NSCLC was > 100 µM in each case.
As for `O=C(/C=C/c1ccc(O)c(O)c1)OC1C[C@@](O)(C(=O)O)C[C@@H](O)[C@H]1OC(=O)/C=C/c1ccc(O)c(O)c1` (stereo not given in full), the TGI in the assay on RXF 393 renal, in the assay on HOP-62 NSCLC, in the assay on UO-31 renal, with SF-268 CNS, in the assay with HCC-2998 colon and with SK-MEL-28 melanoma was > 100 µM throughout. Also, the TGI with SW-620 colon, with NCI-H226 lung, in the assay on 786-0 renal, in the assay on COLO 205 colon and with A549 NSCLC was > 100 µM throughout.
